These results are taken from patent US7601685B2, “Growth factor modified protein matrices for tissue engineering” (Eidgenossische Technische Hochschule Zurich, priority 1998, dated 2009).

One assay deals with sheep drill defect. In words: Sheep bone drill defect healing. Format: in vivo. The note with it: healing time 8 weeks. As to the method: To form the fibrin gel, the dilute precursors were mixed together by injecting the fibrinogen into the tube containing the thrombin. In case of the sheep drill defect (as described below) this mixture was then injected immediately into a drill defect created in sheep cancellous bone, where a fibrin gel formed within 1-5 minutes. In the first series of animal experiments, the efficacy of a fusion protein containing PTH1-34 as the bioactive factor ([…], SEQ ID NO:38) in healing cortical bone was tested in a small animal model. The sequence, YKNR, makes the linkage plasmin degradable (“TG-pl-PTH1-34). The TG-pl-PTH1-34 was made by chemical synthesis. […] The purity of the TG-pl-PTH1-34 was determined to be 95%.
TG-pl-PTH1-34 was tested as well in a long bone defect model to test the effect of this hormone on healing bone. In the sheep drill defect model, 8 mm cylindrically drill defects that were approximately 15 mm deep were placed in both the proximal and distal region of the femur and humerus bones. Since the defect was placed in the epiphysis of the long bones, the defect was surrounded by trabecular bone with a thin layer of cortical bone at the rim of the defect. These defects were then filled with an in situ polymerizing fibrin (about 750 μL) that contained various doses of TG-pl-PTH1-34. or TGPTH1-34. Animals were allowed to heal for eight weeks and then were sacrificed. The defect was analyzed with μCT and histology.
For this series of experiments, three types of compositions were tested. First, TG-pl-PTH1-34 was tested over a large concentration range. […] Thus, TGPTH1-34 could only be liberated by degradation of the fibrin matrix itself. TGPTH1-34 was produced and purified similar to TG-pl-PTH1-34. Purity was determined to be 95%. TGPTH1-34 was tested at several concentrations that were similar to the concentrations of TG-pl-PTH1-34 to compare efficacy. Finally, matrices were made in the presence of granular material, with either TGPTH1-34 or TG-pl-PTH1-34. The granular material was a standard tricalcium phosphate/hydroxyapatite mixture which was embedded in the matrix during gelation. The effect of adding these granules on the efficacy of PTH1-34 was explored. As a control, unmodified fibrin was tested.
The fibrin gel for all experiments was made as described in Example 7. The sheep bone defects were prepared as described in Example 7. The defects were filled with 750 μL of fibrin matrix alone (control) or with TG-pl-PDGFAB, TG-pl-IGF1 or TG-pl-BMP2. The sheep were allowed to heal for eight weeks and were then sacrificed. The explanted defect area was examined with μCT to evaluate the degree of new bone formation.

Assay [1] concerns chronic leg ulcers of the venous stasis origins. As to the kind of experiment: Chronic wound healing on skin in human patients. Format: in vivo. As to the method: TG-pl-PDGF AB as described in Example 7 was incorporated into fibrin gels at 33 μg/mL gel and applied topically to patients with chronic leg ulcers of the venous stasis origins (at the Dermatology Klinik of the University Hospital Zürich.)
The fibrin gels were made from Baxter TISSUCOL® kits (Baxter AG, CH 8604 Volketswil) by diluting the fibrinogen component with Citrate-Glycine buffer (pH 7.3) and diluting the thrombin component with 40 mM Calcium chloride-glycine buffer (pH 7.0). The final concentration of fibrinogen in the applied fibrin gel was about 12.5 mg fibrinogen/mL gel. The thrombin concentration was varied to improve handling of the gels. The final concentration of thrombin in the applied fibrin gel was about 4 to 50 U/mL. TG-pl-PDGF AB was added to the diluted fibrinogen component at 66 μg/mL for a total of 33 μg/mL gel concentration. The diluted fibrinogen and thrombin components were packed in separate sterile syringes at the same volume and deep frozen at −20° C. until use.
The gels were applied via a dual syringe system as provided in the TISSUCOL® kit from Baxter. Briefly, each syringe contained either diluted fibrinogen or diluted thrombin. The two syringes were connected to an applicator set and joined by a tip with a blunt cannula. To form a gel, both components were pushed out of the syringes simultaneously, making a 1:1 mixture fibrin gel directly on the ulcer area. Ulcers were covered with a thin sheath of gel, which was allowed to dry for 2 minutes before standard dressing and compression bandaging was applied.

Assay [2] deals with critical size rat cranial defect. In words: Rat critical size cranial defect healing. Format: in vivo. The note with it: for Healing (% defect filled with bone): Time 63 Days.
For assay [3], the system named is day 8 chick embryonic dorsal root ganglia. In words: Dorsal root ganglia neurite extension in fibrin gels with peptide/heparin-bound growth factor. The note with it: DRG. Format: cell-based. From the text: FIG. 2 is a graph of the effect of matrix bound bFGF on DRG neurite extension at 48 hr. Mean values and standard deviation of the mean are shown. (* denotes p<0.05 compared with unmodified fibrin.)
In order to evaluate this approach to release of heparin-binding growth factors from fibrin cell in-growth matrices that also comprise a covalently linked bi-domain peptide, one domain of which is a factor XIIIa substrate and one domain of which is a heparin-binding domain based on antithrombin III, dorsal root ganglia were cultured three-dimensionally within fibrin gels under a variety of conditions, as shown in the below.
Cross-linking Protocol for Use of Heparin-Binding Peptides: • 1) Dialyze fibrinogen (8 mg/ml) versus 4 L of Tris buffered saline (33 mM Tris), pH 7.4 for 24 hours. • 2) Sterile filter fibrinogen using a 0.2 μm syringe filter. • 3) Make the following peptide solutions:
• 4) Make thrombin solution: 100 units in 5 ml TBS. • 5) Add 1.4 ml of fibrinogen to each peptide solution. • 6) Make gels: Add 20 μl of TBS+50 mM CaCl2, 40 μl of thrombin solution (20 units/ml), and 340 μl of peptide solution+fibrinogen. (above solutions make 6 gels). • 7) Incubate at 37° C. for 1 hr. • 8) Wash 5 times in 24 hours. Use 1 ml of TBS the first 4 times and neuronal media the last time. • 9) Dissect day 8 chick embryonic dorsal root ganglia. • 10) Place one ganglia in each gel and place at 37° C. for 1 hr. • 11) Add 1 ml of neuronal media to each gel. • 12) Change media after 24 hours.

Another assay concerns chick DRGs. In words: Neurite extension of DRGs in fibrin matrices with immobilized β-NGF fusion proteins. Format: cell-based. The text has this:
FIG. 3 is a graph of the effect of immobilized β-NGF fusion proteins on DRG neurite extension within fibrin matrices. Mean values and standard error of the mean are shown. ▪ denotes native NGF. ♦ denotes TG-P-NGF. ● denotes TG-Pi-NGF. * denotes p<0.0001 versus unmodified fibrin with NGF in the culture medium.
To determine the ability of covalently immobilized β-NGF fusion protein to be delivered in a controlled manner, β-NGF fusion proteins were incorporated into fibrin matrices during polymerization, and the ability of these matrices to enhance neurite extension in vitro was assayed using chick DRGs. […] A dose response effect for TG-P-NGF fusion protein was observed, with an optimal dose attained when 1-5 μg/mL of β-NGF fusion protein was present in the polymerization mixture. […] Despite the lower activity of the β-NGF fusion proteins in the PC12 cell activity assay, when the plasmin degradable β-NGF fusion protein was covalently coupled to fibrin, it promoted greater levels of neurite extension than the same dose of native NGF in the culture medium.

The next assay has as its target fibrin gels (Homo sapiens, UniProt P02671+P02675+P02679). The note with it: cross-linked during polymerization; gels degraded with plasmin; n=10. As to the method:
Size exclusion chromatography was used to determine the amount of peptide cross-linked to fibrin gels using the previously developed incorporation method. A bi-domain peptide containing the heparin-binding domain from antithrombin III and a fluorescent label was incorporated into fibrin gels during polymerization. The free peptide was washed from the gels, and the fibrin network was degraded with plasmin. The degradation products were analyzed by high performance liquid chromatography (size exclusion chromatography) to determine the amount of peptide (by fluorescence) present per mole of fibrinogen (by UV absorbance).

[4] abbreviates: Dose 400 μg/mL in fibrin matrix.
Setting [5] is: Dose 1000 μg/mL in fibrin matrix.
Setting [6] is: fusion protein covalently immobilized in fibrin matrix.

Sequence of fibrin gels (P02671 20-644 isoform P02671-2 limits assumed): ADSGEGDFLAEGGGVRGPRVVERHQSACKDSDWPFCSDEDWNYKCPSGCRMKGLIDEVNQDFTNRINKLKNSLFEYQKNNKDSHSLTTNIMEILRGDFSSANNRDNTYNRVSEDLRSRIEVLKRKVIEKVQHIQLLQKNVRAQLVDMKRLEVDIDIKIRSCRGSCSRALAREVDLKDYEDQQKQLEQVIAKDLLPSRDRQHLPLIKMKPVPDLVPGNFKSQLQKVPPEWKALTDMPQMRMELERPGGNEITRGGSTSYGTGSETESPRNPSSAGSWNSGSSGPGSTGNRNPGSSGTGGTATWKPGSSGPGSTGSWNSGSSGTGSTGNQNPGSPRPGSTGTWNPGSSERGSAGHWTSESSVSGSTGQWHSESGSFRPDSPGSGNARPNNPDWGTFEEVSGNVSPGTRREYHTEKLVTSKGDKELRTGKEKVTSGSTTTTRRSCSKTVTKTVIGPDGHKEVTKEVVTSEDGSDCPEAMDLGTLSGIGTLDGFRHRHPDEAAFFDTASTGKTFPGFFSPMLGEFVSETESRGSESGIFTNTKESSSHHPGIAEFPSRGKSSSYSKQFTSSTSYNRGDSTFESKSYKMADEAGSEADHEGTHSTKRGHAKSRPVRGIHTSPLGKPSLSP
Sequence of fibrin gels (P02675 45-491 limits assumed): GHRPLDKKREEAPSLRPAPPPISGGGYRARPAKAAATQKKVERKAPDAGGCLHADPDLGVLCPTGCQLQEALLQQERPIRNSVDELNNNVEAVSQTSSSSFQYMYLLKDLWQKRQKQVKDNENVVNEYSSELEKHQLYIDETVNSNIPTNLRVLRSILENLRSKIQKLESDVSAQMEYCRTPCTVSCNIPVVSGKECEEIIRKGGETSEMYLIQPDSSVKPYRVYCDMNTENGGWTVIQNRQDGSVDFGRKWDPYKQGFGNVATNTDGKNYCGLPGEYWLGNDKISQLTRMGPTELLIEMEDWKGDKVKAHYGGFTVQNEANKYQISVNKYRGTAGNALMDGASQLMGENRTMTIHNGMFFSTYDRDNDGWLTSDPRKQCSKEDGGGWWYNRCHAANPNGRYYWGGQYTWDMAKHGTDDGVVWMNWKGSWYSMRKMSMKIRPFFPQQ
Sequence of fibrin gels (P02679 27-437 isoform P02679-2 limits assumed): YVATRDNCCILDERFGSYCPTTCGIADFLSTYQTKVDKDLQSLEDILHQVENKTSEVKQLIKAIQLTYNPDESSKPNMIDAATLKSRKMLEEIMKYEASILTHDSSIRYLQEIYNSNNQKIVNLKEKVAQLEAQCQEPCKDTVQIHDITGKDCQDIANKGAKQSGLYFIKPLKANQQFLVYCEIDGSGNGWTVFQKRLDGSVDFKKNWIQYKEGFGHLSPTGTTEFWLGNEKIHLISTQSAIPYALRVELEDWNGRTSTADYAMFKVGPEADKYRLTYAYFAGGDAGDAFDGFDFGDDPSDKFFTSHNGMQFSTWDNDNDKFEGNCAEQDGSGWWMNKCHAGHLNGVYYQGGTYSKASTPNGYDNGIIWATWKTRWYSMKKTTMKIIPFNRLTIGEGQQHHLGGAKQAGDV

Turning to “NQEQVSPLSVSEIQLMHNLGKHLN SMERVEWLRKKLQDVHNF (NQEQVSPLSVSEIQLMHNLGKHLNSMERVEWLRKKLQDVHNF; Modified parathyroid hormone from Homo sapiens) [TGPTH1-34]”, the “Healing (% defect filled with bone)” value turned out to be 40% in the assay with sheep drill defect (setting [4]) and 65% with sheep drill defect (setting [5]).

Regarding “TG-pl-IGF1: IGF1 fusion protein with TG-pl-hook (SEQ ID NO:42)”, in the assay on sheep drill defect (Dose 67 μg/mL in fibrin matrix), the “Healing (% defect filled with bone)” value is 41.5%.

As to “TG-pl-PDGFAB: PDGF AB heterodimer with 21 amino acid TG-pl-hook on both N termini (SEQ ID NO:40 and 41)”, the “Healing (% defect filled with bone)” value with sheep drill defect (Dose 60 μg/mL in fibrin matrix) was 39.5%. Besides, the healing response entry in assay [1] (33 μg/mL fibrin gel, topical, all three patients) is given as “enhanced healing response”. Further, the “time to complete healing of wound” value in assay [1] (33 μg/mL fibrin gel, topical, one patient, wound about 2 cm^2) is on record as ≤ 4 weeks; in assay [1] (33 μg/mL fibrin gel, topical, third patient, deep wound down to the periost (1 cm^2)), 15 weeks. For the same substance, the “decrease in wound bed depth as well as surface area” value in assay [1] (33 μg/mL fibrin gel, topical, two large wounds on one patient (up to 17 cm^2), after 8 weeks) was 30-50%. Besides, the “healing versus standard treatment alone” value in assay [1] (fibrin gel treatment, doctors' assessment) is reported as “strong enhancement of healing”.

For “NQEQVSPLYKNRSVSEIQLMHNLGKHLNSMERVEWLRKKLQDVHNF (Modified parathyroid hormone from Homo sapiens) [TG-pl-PTH1-34]”, the “Healing (% defect filled with bone)” value in the assay with sheep drill defect (Dose 50 μg/mL in fibrin matrix) stood at 31.3%; in the assay with sheep drill defect (Dose 100 μg/mL in fibrin matrix), 59.7%; with sheep drill defect (setting [4]), 73%; in the assay on sheep drill defect (setting [5]), 77%; in assay [2] (Dose 10 μg/ml in fibrin matrix) it was 43%; in assay [2] (Dose 200 μg/ml in fibrin matrix) it was 50%. In addition, the “Healing (% defect filled with bone)” value in assay [2] (Dose 500 μg/ml in fibrin matrix) turned out to be 62%. Besides, the level of healing result in assay [2] (3 week timepoint) was “very similar to that observed with a fibrin matrix alone”. In addition, the “increase of healing response” value in assay [2] (high dose, 7 weeks, versus fibrin alone) worked out at 65%.

In the case of “bFGF: basic fibroblast growth factor, heparin-binding growth factor”, the “effect on neurite extension” value in assay [3] (1 μg/ml and 5 μg/ml of bound bFGF (peptide + heparin in fibrin), dose dependent, 48 hr) is given as “increased”. Further, in assay [3] (bFGF added without peptide and heparin, gels washed, 48 hr), the “effect on neurite outgrowth” value is reported as “does not enhance neurite outgrowth”.

As to “TG-P-NGF: β-NGF fusion protein with factor XIIIa substrate NQEQVSPL and functional plasmin substrate LIK/MKP (SEQ ID NO:24)”, the “optimal dose of β-NGF fusion protein in the polymerization mixture for neurite extension” value in the assay with chick DRGs (dose response in fibrin matrices) lay within 1 to 5 µg/mL. Besides, in the assay with chick DRGs (setting [6]), the “enhancement of neurite extension over unmodified fibrin with 10 ng/mL of native NGF in medium” value is recorded as “up to 50%” and the “enhancement of neurite extension versus unmodified fibrin with no NGF present in the culture medium” value is recorded as “over 350%”.

As for VEGF, in assay [3] (1.0 μg/ml bound VEGF), the “effect on neurite extension” value is “did not increase neurite extension”.

Regarding dLNQEQVSPK(βA)FAKLAARLYRKA, the “incorporation of peptide into fibrin” value on fibrin gels is on record as 8.7±0.2 moles of peptide per mole of fibrinogen.
